Experimental data reported in US20230121797A1, “A COMBINATION OF FLAVONOIDS AND SPHINGOSINE 1 PHOSPHATE LYASE INHIBITORS FOR THE TREATMENT OF LUNG INFLAMMATION” (AC BIOSCIENCE SA, priority 2020, published 2023).
Read-outs that look alike come from different tables or passages of the source. Each block holds one compound with its values, some of them ahead of it.

Assays:
circulating lymphocytes [1] = settings: human subjects, cited from earlier work
circulating lymphocytes [2] = settings: mice, cited from earlier work
Human neutrophils [3] = assay: cytochrome c reduction rate (superoxide anion production) by activated neutrophils; type: cell-based; settings: Resting neutrophils
Human neutrophils [4] = assay: as above; type: cell-based
Description: Human neutrophils (2×10^6/mL) were incubated in HBSS with TNF-α at 37° C. for 25 minutes. Cells were stimulated with FMLP or PMA in the presence of cytochrome c (1.2 mg/mL final), and the optical density of the supernatants was determined by spectrophotometry (550 nm). For both PMA or FLMP as PMN activators, the IC50 for DHQ inhibition is around 8 μM.
When activated by opsonized bacteria, zymozan, FMLP (Formyl-Methionyl-Leucyl-Phenylalanine) or PMA (phorbolmyristate acetate), neutrophils undergo an oxidative burst resulting in the production of superoxide anion and subsequent hydrogen peroxide. The oxidative burst is mainly mediated by the NADPH oxidase activation, enzyme responsible of the superoxide anion production. […] This effect may come from either a direct anion superoxide scavenging or from the inhibition of NADPH oxidase activation.

Human neutrophils [5] = assay: ROS production by activated neutrophils, luminol chemiluminescence; type: cell-based; settings: for inhibition of the ROS production: DHQ 1p M in the assay medium
Description: ROS production is measured using a chemiluminescence standard procedure: briefly, One hundred microliters of human neutrophils (4×10^6/mL) were primed with TNF-α at 37° C. for 25 minutes. 100 μL luminol (1 μM final concentration) and HRP (62.5 U/mL final concentration) in HBSS were added, and 150-μL aliquots were transferred to a prewarmed 96-well luminometer plate. Light emission was recorded by a Berthold MicroLumat Plus luminometer (Berthold Technologies, Hartfordshire, United Kingdom) (data output is in relative light units per second).
In order to further investigate the effect of DHQ on the oxidative burst of neutrophils, the measurement of the ROS production by chemoluminescence has been used which detect both surperoxide anion and hydrogen peroxide. […] This inhibitory effect can be considered as very efficient regarding the fact that the addition of 1p M in the assay medium results in around 80% inhibition of the ROS production in both experiments. The inhibition is not due to a ROS scavenging (as measured by cyt. C reduction) but due to the inhibition of NADPH oxidase.

PMN = assay: oxygen consumption of triggered PMN; type: cell-based; settings: triggered by PMA, FMLP and opsonized zymosan; data not shown
neutrophils = assay: activation of neutrophils stimulated by LPS or PMA; type: cell-based
From the text: Flavonoids are the largest group of naturally occurring polyphenolic compounds which have shown diverse biological activities depending of their chemical structure including anti-viral activities against a variety of viruses and potent immune-modulating and inflammatory activities. Among flavonoids, Quercetin, and its bioavailable derivatives such as isoquercetin, offer good perspectives to develop new therapeutics to treat cancer, viral infection and pathogenic inflammation (reviewed in Li et al, 2016). Flavonoids have potent anti-inflammatory activities.

[6] = tested on: LPS-stimulated whole blood; settings: cited from earlier work

Structure (SMILES): C/C(=N\O)c1nc([C@@H](O)[C@H](O)[C@H](O)CO)c[nH]1 [Compound 2]
- tolerability (circulating lymphocytes [1]; all dose groups): generally well tolerated
- decrease in peripheral lymphocytes (circulating lymphocytes [1]; single ascending dose, highest administered dose of 180 mg): ~50%
- lymphopenia (circulating lymphocytes [2]; single oral doses lower than 30-100 mg/kg): minimal to non-statistically significant effect
- lymphopenia (circulating lymphocytes [2]; single oral doses of 30-100 mg/kg): 40-60%
- depletion of circulating lymphocytes (circulating lymphocytes [2]; single oral doses, 18 h after dosing): up to 60%

- IC50 (Human neutrophils [4]; Homo sapiens, Neutrophil, PMA as PMN activator, neutrophils incubated with TNF-α, read-out: IC50 for DHQ inhibition of cytochrome c reduction rate (superoxide anion production)): ~8 µM
Structure (SMILES): O=C1c2c(O)cc(O)cc2O[C@H](c2ccc(O)c(O)c2)[C@H]1O [DHQ, Dihydroquercetin]
- cytochrome c reduction (anion superoxide production) (Human neutrophils [3]; DHQ 1 μM): 0.000 dDO/min
- cytochrome c reduction (anion superoxide production) (Human neutrophils [3]; DHQ 10 μM): 0.036 dDO/min
- cytochrome c reduction (anion superoxide production) (Human neutrophils [3]; DHQ 100 μM): 0.086 dDO/min
- cytochrome c reduction (anion superoxide production) (Human neutrophils [4]; +FMLP, DHQ 1 μM): 0.144 dDO/min
- cytochrome c reduction (anion superoxide production) (Human neutrophils [4]; +FMLP, DHQ 10 μM): 0.105 dDO/min
- cytochrome c reduction (anion superoxide production) (Human neutrophils [4]; +FMLP, DHQ 100 μM): 0.040 dDO/min
- cytochrome c reduction (anion superoxide production) (Human neutrophils [4]; +PMA, DHQ 1 μM): 0.110 dDO/min
- cytochrome c reduction (anion superoxide production) (Human neutrophils [4]; +PMA, DHQ 10 μM): 0.070 dDO/min
- cytochrome c reduction (anion superoxide production) (Human neutrophils [4]; +PMA, DHQ 100 μM): 0.021 dDO/min
- T. half (rise) (Human neutrophils [5]; FMLP 10−6 Ml, DHQ 1, 10 or 100 μM, concentration of samples 2-4 not given): 1.55
- inhibition of the ROS production (Human neutrophils [5]; neutrophils activated by FMLP): around 80%
- inhibition of the ROS production (Human neutrophils [5]; neutrophils activated by PMA): around 80%
- oxygen consumption of PMN (PMN): strongly inhibits
- effect on the activation of neutrophils (neutrophils): strong inhibitory effect

Structure (SMILES): O=c1c(O)c(-c2ccc(O)c(O)c2)oc2cc(O)cc(O)c12 [quercetin]
- production of the major inflammatory cytokines TNFα, IL-6, IL-8 and IL-10 [6]: decreases the production
- effect on the activation of neutrophils (neutrophils): strong inhibitory effect
